Test results: paper PMC5048659 (Arthritis Research & Therapy, 2016)
“Also recorded” adds a separate entry of the source.

Experiments:
[1] = cited from earlier work
HepG2 cells = experiment: Mitochondrial toxicity assay (JC-1 mitochondrial membrane potential); type: cell-based, human
Protocol: HepG2 cells were counted via hemocytometer and diluted into equal volumes of serum-free Opti-MEM (Life Technologies) and JC-1 Staining Solution (Sigma catalog number CS0390) at 300,000 cells/mL in the presence of 2.5 μg/mL JC-1. Cells were incubated at 37 °C and 5 % CO2 for 20 minutes, rinsed once with Hank's Balanced Salt Solution, and resuspended to the same concentration in serum-free Opti-MEM. Cells were then seeded into 96-well black-sided clear-bottom tissue culture plates at 30,000 cells/100 μL/well. Three replicates per experimental condition group were used. Compound was added with the final dimethyl sulfoxide (DMSO) concentration at 0.5 %. After 2 hours at 37 °C and 5 % CO2, medium was aspirated and plates were read on a Gemini EM spectrofluorometer (Molecular Devices). Fluorescence of JC-1 monomers was monitored by excitation at 490 nm and emission at 530 nm (green) and of aggregates by excitation at 525 nm and emission at 590 nm (red). The ratio of J-aggregates to monomers was calculated, with a lower ratio indicating increased cell toxicity. The percent change in mitochondrial membrane potential (Ψm) was calculated as follows: […]

PPARγ = biological target: T1, PPARγ (Homo sapiens, UniProt P37231); experiment: Human PPARγ luciferase reporter assay; type: cell-based; details: reporter cells, 24 hours
T1 sequence (P37231 238-505 limits assumed): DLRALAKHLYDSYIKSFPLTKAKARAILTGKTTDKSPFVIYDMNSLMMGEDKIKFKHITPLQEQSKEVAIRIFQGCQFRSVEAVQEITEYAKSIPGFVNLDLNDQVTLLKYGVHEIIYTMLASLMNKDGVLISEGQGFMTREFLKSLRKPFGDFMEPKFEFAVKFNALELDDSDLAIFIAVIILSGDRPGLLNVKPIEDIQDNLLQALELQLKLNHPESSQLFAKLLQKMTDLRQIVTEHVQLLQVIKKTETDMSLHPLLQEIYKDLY
Protocol: This assay was performed using nonhuman mammalian cells engineered to provide a PPARγ-responsive luciferase reporter gene and constitutive, high levels of PPARγ (Indigo Biosciences catalog number IB00101). Cells were incubated with compounds for 24 hours, and then luciferase activity was measured using a luminometer. Agonist activity was reported as fold activation over a vehicle control. A positive control agonist, rosiglitazone, was included in each batch run to verify cell integrity.

OAT4 = biological target: T2, OAT4 (Homo sapiens, UniProt Q9NSA0); experiment: OAT4 urate transport assay in stably transfected HEK293 cells; type: cell-based; details: 100 μM 14C-urate, 10 min, OAT4-551G cells; mean ± SEM, three experiments; read-out: Potency (IC50) against OAT4
T2 sequence (Q9NSA0 with tags, fused parts or gaps): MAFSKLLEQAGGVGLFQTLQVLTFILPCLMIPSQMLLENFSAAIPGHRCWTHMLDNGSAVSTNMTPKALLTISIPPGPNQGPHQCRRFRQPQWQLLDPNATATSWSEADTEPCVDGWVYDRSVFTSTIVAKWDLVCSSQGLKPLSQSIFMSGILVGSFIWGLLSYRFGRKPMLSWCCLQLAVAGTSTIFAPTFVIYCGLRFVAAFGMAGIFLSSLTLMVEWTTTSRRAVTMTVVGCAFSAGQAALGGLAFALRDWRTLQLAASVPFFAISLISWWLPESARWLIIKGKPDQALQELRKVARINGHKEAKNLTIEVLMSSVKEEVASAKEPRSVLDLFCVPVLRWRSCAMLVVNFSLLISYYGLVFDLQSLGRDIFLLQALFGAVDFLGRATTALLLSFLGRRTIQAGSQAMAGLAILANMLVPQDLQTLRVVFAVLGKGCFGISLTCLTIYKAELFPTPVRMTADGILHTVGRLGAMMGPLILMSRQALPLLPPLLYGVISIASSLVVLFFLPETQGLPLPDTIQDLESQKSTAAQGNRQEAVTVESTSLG
Protocol: Stably transfected HEK293-OAT4-551G cells were used for OAT4 transport activity assays, which were grown for several weeks in media (DMEM with 10 % fetal bovine serum and 1 mM sodium pyruvate) containing 500 μg/mL geneticin sulfate. An isolated clone with high OAT4 activity was selected for activity assays. One day prior to the assay, cells were plated at 200,000 cells/well into each well of white, clear bottom poly-D-lysine-coated assay plates (BD Biosciences).
The cells were assayed on the following day. […] The free urate was removed by aspiration and the cells rinsed three times in 150 μL wash buffer. The cells were then subjected to liquid scintillation counting to measure transported urate. […] Each point represents the mean and standard error of the mean (SEM) from triplicates.

GLUT9 (SLC2A9v2/GLUT9ΔN) = biological target: T3, GLUT9 (SLC2A9v2/GLUT9ΔN) (Homo sapiens, UniProt Q9NRM0); experiment: GLUT9 urate transport in cRNA-injected oocytes; type: cell-based
T3 construct: expressed in transfected cells
T3 sequence (Q9NRM0 1-511 isoform Q9NRM0-2): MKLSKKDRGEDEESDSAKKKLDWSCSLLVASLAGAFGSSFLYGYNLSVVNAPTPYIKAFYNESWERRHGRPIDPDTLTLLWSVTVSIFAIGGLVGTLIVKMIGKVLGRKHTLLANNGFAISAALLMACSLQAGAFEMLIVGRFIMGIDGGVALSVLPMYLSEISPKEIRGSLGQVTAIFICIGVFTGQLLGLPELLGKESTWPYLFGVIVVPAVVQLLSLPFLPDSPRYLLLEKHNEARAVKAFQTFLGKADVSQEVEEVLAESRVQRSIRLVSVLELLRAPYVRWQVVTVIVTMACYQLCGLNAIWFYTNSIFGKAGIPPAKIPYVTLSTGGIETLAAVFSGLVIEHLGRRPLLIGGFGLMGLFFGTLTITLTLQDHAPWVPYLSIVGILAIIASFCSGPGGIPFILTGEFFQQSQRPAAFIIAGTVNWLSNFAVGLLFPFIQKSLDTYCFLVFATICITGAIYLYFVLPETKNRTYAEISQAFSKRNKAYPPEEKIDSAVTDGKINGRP
Protocol: For GLUT9, SLC2A9v2/GLUT9ΔN in pCMV6/neo was linearized with XmaI and NotI and cRNA transcribed using the mMessage mMachine T7 kit (Ambion). Oocytes were injected with either water or 25 ng cRNA and incubated for 3 to 5 days in ND96 buffer. For each point, 10 oocytes were incubated with 100 μM ^14C-uric acid in ND96 buffer with and without test compounds at room temperature for 60 minutes. The oocytes were then washed three to four times in ice-cold ND96 buffer and lysed prior to scintillation counting.

| SMILES | Estimated plasma concentration [1] [µM] | Urinary excretion [1] [%] | Lowest concentration reducing mitochondrial membrane potential (HepG2 cells; HepG2, 2 hours) [µM] | EC50 (HepG2 cells; Homo sapiens, HepG2, 2 hours, read-out: Half maximal effective concentration for reduction of mitochondrial membrane potential) [µM] | PPARγ activation (PPARγ; at 30 μM) | IC50 (OAT4) [µM] | IC50 (GLUT9 (SLC2A9v2/GLUT9ΔN); 100 μM 14C-uric acid, 60 min, read-out: Potency against GLUT9) [µM] | Effect on GLUT9 urate transport (GLUT9 (SLC2A9v2/GLUT9ΔN); compound at up to 100 μM) | Mitochondrial toxicity (HepG2 cells; HepG2, up to 300 μM) | PPARγ activation (PPARγ; at 300 μM) | PPARγ activation (PPARγ; up to 100 μM) |
| --- | --- | --- | --- | --- | --- | --- | --- | --- | --- | --- | --- |
| CCc1oc2ccccc2c1C(=O)c1cc(Br)c(O)c(Br)c1 [Benzbromarone] | 0.016 to 0.16 | 6 | 0.4 | 1.36 | strongly activated | 3.19 ± 1.04 | ~100 | only weak activity; also recorded: inhibited |  |  |  |
| CCCN(CCC)S(=O)(=O)c1ccc(C(=O)O)cc1 [Probenecid] |  |  |  |  |  |  |  |  | no mitochondrial toxicity | slight PPARγ activation | no activation |
